# Data as given in publication PMC10449848, “Structural basis of lipid-droplet localization of 17-beta-hydroxysteroid dehydrogenase 13” (Nature Communications, 2023).
# “And” between values parts separate entries of the source, which are not always exact repeats. Equal entries are not always repeated.
# Experiments:
# [1] = target: T1, dog mutant HSD17B13 (G177E/V178G/T205A/I293V) (Canis lupus familiaris, UniProt A0A8C0PP93, G177E/I293V/T205A/V178G); experiment: Thermal shift assay (static light scattering, Tagg), dog mutant HSD17B13; format: binding; conditions: Fig. 6d, 500 μM NAD+
# T1 construct: HSD17B13 (AA1-300, XP_038300006.1); made in house; host or cells: Sf9 (baculovirus)
# T1 sequence (A0A8C0PP93 1-300 G177E/V178G/T205A/I293V): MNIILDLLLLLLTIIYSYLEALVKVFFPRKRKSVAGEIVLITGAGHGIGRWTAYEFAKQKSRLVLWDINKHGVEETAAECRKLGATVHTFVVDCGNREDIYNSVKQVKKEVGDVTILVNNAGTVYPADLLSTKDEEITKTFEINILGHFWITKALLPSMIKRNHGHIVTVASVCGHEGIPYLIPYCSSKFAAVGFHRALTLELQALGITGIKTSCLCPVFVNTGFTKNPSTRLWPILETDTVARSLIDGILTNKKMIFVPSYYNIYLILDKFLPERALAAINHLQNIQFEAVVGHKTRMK
# From the text: To understand ligand binding, we tested several approaches such as surface plasmon resonance and isothermal calorimetry. […] We next turned to thermal shift assays (TSA) for comparing ligand binding affinities. TSA measures the changes in the thermal denaturation temperature of a protein under different conditions such as the presence compound, changes in buffer conditions, or sequence mutations. There are various readouts including intrinsic fluorescence or light scattering signals. We chose the static light scattering methods to detect the temperatures at which our proteins start to aggregate (Tagg), which are more suitable for membrane proteins that require detergent micelles for stability.
# TSA studies were run on the UNit instrument (Unchained Labs, CA, USA). […] The data was processed using the UNcle software (Unchained Labs, CA, USA), and temperatures at which the protein started aggregation were recorded as Tagg.
# [2] = target: T2, human HSD17B13 (Homo sapiens, UniProt Q7Z5P4); experiment: Co-factor (NAD+ / NADP) dependency biochemical assay, NAD(P)H-Glo readout, uninhibited vs inhibited reactions; conditions: 30 μM 1, 20 nM protein
# T2 construct: human HSD17B13 (residues 2-300, NP_835236.2); 10x His (N); TEV protease site (N); made in house; host or cells: Sf9 (baculovirus)
# T2 sequence (Q7Z5P4 2-300): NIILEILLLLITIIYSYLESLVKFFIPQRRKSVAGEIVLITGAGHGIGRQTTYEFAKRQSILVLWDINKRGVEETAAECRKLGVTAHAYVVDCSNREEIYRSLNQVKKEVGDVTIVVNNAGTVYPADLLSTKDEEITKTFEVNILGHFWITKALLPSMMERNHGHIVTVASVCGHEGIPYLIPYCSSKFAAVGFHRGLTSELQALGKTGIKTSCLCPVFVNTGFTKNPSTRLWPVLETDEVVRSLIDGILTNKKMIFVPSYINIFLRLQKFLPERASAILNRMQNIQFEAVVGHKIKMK
# Protocol: Dependency of co-factor (NAD^+ and NADP^+) was determined using a purified protein HSD17B13 biochemical enzyme activity assay, using NAD(P)H-Glo luciferase readout (Promega). Substrates β-estradiol (Sigma, E8875) and Leukotriene B4 (LTB4, Cayman), 15 μM FAC in assay buffer (25 mM Tris-HCl (Sigma T2444) and 0.02% Triton X-100, pH 7.6), and 500 µM FAC co-factor (NAD^+ or NADP, Sigma, N8285) in assay buffer were added (2.5 µL/well each) to 384-well assay plates (Corning 3824) containing 2.5 μL of either 30 μM FAC inhibitor in 1% DMSO/assay buffer or vehicle (1% DMSO/assay buffer), in triplicate. The reaction was initiated by the addition of 2.5 µL/well-purified HSD17B13 protein (20 nM FAC in assay buffer). Compound, substrate, co-factor, and HSD17B13 protein were incubated in the dark at room temperature for 2 hours before the addition of 10 µL/well NAD(P)H-Glo detection reagent, prepared from luciferase detection reagent and reductase/reductase substrate, as per manufacturer’s instructions (Promega, G9061). Detection reagent was incubated in the dark for 1 hour at room temperature before plates were read on the Envision plate reader (Perkin Elmer) using a luminescent protocol. Data expressed as relative luminescent units (RLUs) were exported from the plate reader and plotted in GraphPad Prism.
smiles,measurement,setting,value
O=C(NC[C@]1(O)CC[C@H](COc2ccccc2F)CC1)c1ccc(O)c(F)c1 [Compound 1],binding in TSA,[1],bound compound 1 strongly
same,Tagg,[1]; 50 µM compound,46.8 ± 2.2 °C
same,signal of inhibited reaction,[2]; LTB4 + NAD,49880 RLU and 52640 RLU
same,signal of inhibited reaction,[2]; LTB4 + NADP,49240 RLU and 47920 RLU
same,signal of inhibited reaction,[2]; β-estradiol + NAD,48200 RLU and 48320 RLU
same,signal of inhibited reaction,[2]; β-estradiol + NADP,47760 RLU and 49720 RLU
